# Measured values published in ChEMBL document CHEMBL5726207, “Substituted N,2-diarylquinoline-4-carboxamides and the use thereof as anti-inflammatory agents” (2019).
# Where “and” joins values, the source holds several entries; their conditions need not be identical. Equal entries are not always repeated.
# Target: Prostaglandin F2-alpha receptor (Homo sapiens, UniProt P43088)
# Assay: 470 nm/em. 525 nm in a fluorescence measuring instrument (FLIPR Tetra, MolecularDevices) for 120 seconds.
# Type: cell-based
# Chain of Prostaglandin F2-alpha receptor (P43088 whole entry): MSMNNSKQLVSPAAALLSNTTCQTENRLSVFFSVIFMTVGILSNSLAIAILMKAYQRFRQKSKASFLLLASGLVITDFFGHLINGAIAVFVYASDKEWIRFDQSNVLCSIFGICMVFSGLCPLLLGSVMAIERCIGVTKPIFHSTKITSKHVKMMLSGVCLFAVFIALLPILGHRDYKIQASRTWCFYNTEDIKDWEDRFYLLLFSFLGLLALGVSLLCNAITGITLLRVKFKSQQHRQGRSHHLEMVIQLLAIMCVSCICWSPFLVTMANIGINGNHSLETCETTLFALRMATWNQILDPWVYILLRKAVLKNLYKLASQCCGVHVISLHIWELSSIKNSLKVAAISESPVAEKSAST
smiles,measurement,value
Cc1c(-c2ccccc2)nc2ccc(Br)cc2c1C(=O)Nc1ccc(C(=O)O)cc1F,IC50,53 nM and 47 nM
